Measured values taken from patent US20230250428A1, “Method and composition for early detection of malignancies” (Alliance of Cardiovascular Researchers, priority 2022, published 2023).

How the values were obtained:
4IC tumors = experiment: Effect of targeting TRAF3IP2 on chemoresistance in vivo (4IC tumors, Paclitaxel combination); parameters: species or system mice; conditions: vs SCR-AO group
Procedure: FIG. 16. Effect of targeting TRAF3IP2 on chemoresistance in vivo. Tumors were induced using 4IC cells (n=6 animals/group), and mice were treated with one of the following: SCR-AO, SCR-AO+Paclitaxel, TRAF3IP2-AO, or TRAF3IP2-AO+Paclitaxel. Animals in the 4IC SCR-AO group were euthanized by day 28 due to increased tumor […]. Paclitaxel reduced tumor volume by 42% and TRAF3IP2 targeting reduced tumor size by 78%.
At first, we induced tumors using wild type 4IC cells and a similar set up described in FIG. 12. After tumor induction, each group was treated with one of the following: SCR-AO, SCR-AO and Paclitaxel, TRAF3IP2-AO, or TRAF3IP2-AO and Paclitaxel. Animals in the SCR-AO group had to be euthanized by day 28 due to increased tumor burden. Paclitaxel reduced tumor volume by 42% and TRAF3IP2 targeting reduced tumor size by 78%.

4IC cells = experiment: Cell cycle profile of 4IC TNBC cells with TRAF3IP2 knockdown and/or Paclitaxel; format: cell-based, human; conditions: 4IC cells in vitro, vs 4ICControl shRNA
Excerpt: FIG. 7. […] Cell cycle profiles of 4ICControl shRNA, 4ICControl shRNA+Paclitaxel, 4ICTRAF3IP2 KD and 4ICTRAF3IP2 KD+Paclitaxel (A-D).
Paclitaxel has been previously shown to arrest cell cycle progression at the G2/M phase, resulting in apoptosis.

Structure (SMILES): CC(=O)O[C@H]1C(=O)[C@@]2(C)[C@H]([C@H](OC(=O)c3ccccc3)[C@]3(O)C[C@H](OC(=O)[C@H](O)[C@@H](NC(=O)c4ccccc4)c4ccccc4)C(C)=C1C3(C)C)[C@]1(OC(C)=O)CO[C@@H]1C[C@@H]2O [Paclitaxel]
- reduction of tumor volume (4IC tumors): 42%
- increase in the proportion of cells in G2 (4IC cells): 23%
